Reference: PubChem BioAssay AID179 (DTP/NCI, 2004)
“And” between values parts separate entries of the source, which are not always exact repeats. Identical values can stand only once. The source made the active and inactive calls.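 The calls were made as follows: active = compounds giving half or more protection of infected cells from virus-caused growth loss, again on retest; inactive = the rest.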

Tested on: CEM cells HIV-1 protection, formazan growth assay
Assay: NCI AIDS Antiviral Assay
Conditions: for IC50: measured here: growth of uninfected CEM cells
How it was run: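 CEM (human) cells, HIV-1 infected vs uninfected, 5-point dosing, formazan growth read-out. Retest threshold 50% protection.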

Structure (SMILES)	EC50 [µM]	IC50	outcome
N#CC1(C#N)NC(c2cccs2)C(C#N)(C#N)NC1c1cccs1 (configuration not stated)	> 200	26.9 µM	
Cc1ccc(C(=O)c2ccccc2)c(C(=O)O)c1	> 200	> 200 µM	
O=C(O)c1ccc(-c2c3ccc(=O)cc-3oc3cc(O)ccc23)c(C(=O)O)c1	60.3	162 µM	
COC(=O)CCC(=O)c1ccc2c(c1)CC1(C2)Cc2ccc(C(=O)CCC(=O)OC)cc2C1	> 200	42.7 µM	
Cc1nn(C(=O)Cc2ccccc2)c2c1C(c1ccc(O)cc1)SC(N)=N2 (configuration not stated)	83.2	> 200 µM	
Cc1cc(OP2(=O)NCc3ccncc3O2)ccc1Cl (configuration not stated)	> 200	> 200 µM	
CCOC(=O)/C(=C\c1cccc(Cl)c1)P(=O)(OCC)OCC	> 380	81.3 µM	
COc1ccc(-c2c3nc(c(-c4ccc(OC)cc4)c4[n-]c(c(-c5ccc(OC)cc5)c5nc(c(-c6ccc(OC)cc6)c6[n-]c2c2ccccc62)-c2ccccc2-5)c2ccccc42)-c2ccccc2-3)cc1.[Zn+2]	> 50.1	> 50.1 µM	
CC1(C)C[C@H]2[C@H](O)C(CO)=C3CC(O)C3(C)[C@H]2C1 (some centres not stated)	> 141	66.1 µM	
CC1CC(c2ccc(Cl)cc2)=Nc2ccccc2S1 (configuration not stated)	> 6.92	> 6.92 µM	
CSc1ccc(C2OC(=O)c3c2ccc2ccccc32)c(C)c1 (configuration not stated)	> 16.2	> 16.2 µM	
Nc1nc(N)n2c(N)nnc2n1	> 200	> 200 µM	
COc1cc(C(=O)CC(O)(C(F)(F)F)C(F)(F)F)cc(OC)c1OC	> 200	> 200 µM	
c1ccc2c3c(ccc2c1)CN1CCCCC1C3 (configuration not stated)	> 676	49 µM	
COc1cc2c(cc1OC)C13CC[N+]4(C)CC5CCOC6CCN2C1C6C5CC34 (configuration not stated)	> 479	66.1 µM	
COc1cccc(C2=CCCCCC2)c1OC	> 200	79.4 µM	
CC1CCC(=O)C(C(=O)CC2CC(=O)N(C)C(=O)C2)C1 (configuration not stated)	> 126	> 126 µM	
Cc1c2nc3ccccc3sc-2cc(=O)c1C	> 21.4	> 21.4 µM	
C=CCCNCC/C=C\[Si](C)(C)C	> 1260	1230 µM	
COc1ccc(/C=c2/sc3n(c2=O)NC2(CCCCC2)NN=3)cc1			inactive
COC(=O)c1ccccc1/C=C1\Cc2ccc3c(c2C1=O)CCC3	> 200	> 200 µM	
COc1ccc2nc3ccc(OC)cc3c(SCCCl)c2c1			inactive
CC1(C)COC(C23C4C5C2C2C3C4C52I)=N1 (configuration not stated)	> 79.4	> 79.4 µM	

Structure (SMILES)	EC50 [µM]	IC50	outcome
Cc1cc2c(=O)cc(-c3ccc(C(=O)O)cc3)oc2c(C(N)=O)c1C			inactive
CC(C)C(=O)NC(=S)Nc1ccc([N+](=O)[O-])cc1C#N	> 123	> 123 µM	
CC1=NN(C(=O)c2ccc(Cl)cc2)C(=O)/C1=C/c1ccccc1O	> 20.9	> 20.9 µM	
O=S(=O)(SSS(=O)(=O)c1ccc(Cl)cc1)c1ccc(Cl)cc1	> 63.1	> 63.1 µM	
O=C1COC(c2ccccc2O)=NN1CCCN1CCCC1	> 525	372 µM	
COC(=O)c1cc(C)ccc1/C=C1\Cc2cc(C)c(C)cc2C1=O	> 100	> 100 µM	
COc1cc(/C=C2\C(=O)N(c3ccccc3)C(c3ccccc3)S2(=O)=O)cc(OC)c1OC (configuration not stated)	> 20	2.88 µM	
COc1ccc(-c2c3c(n(C4OC(CO)C(O)C(O)C4O)c(=S)c2C#N)CCC3)cc1 (configuration not stated)	> 200	43.7 µM	
N#CC(C(=O)/C(=N/NC(=O)c1ccccc1O)C(C#N)c1ccc(Br)cc1)c1ccc(Br)cc1 (configuration not stated)	> 23.4	> 23.4 µM	
OC1c2cccn2-c2cc(Cl)ccc2SC1c1ccccc1 (configuration not stated)	> 70.8	4.47 µM	
CCCCc1ccc(C(=O)O)nc1			inactive
NC(=O)C(c1ccccc1)N1CCOCC1 (configuration not stated)	> 200	1.02 µM	
COc1c(O)cc2oc3cc(O)c(CC=C(C)C)c(O)c3c(=O)c2c1CC=C(C)C	> 229	16.6 µM and 10.7 µM	
O=C(Nn1c(-c2ccccc2)nc2ccccc2c1=O)c1ccc(Cl)cc1	> 200	120 µM	
Cc1ccc(-c2nc(C)c(C(=O)Nc3ccc(Cl)cc3)s2)cc1	> 200	> 200 µM	
COC1(CC[C@@H](C)COC2OC(CO)C(O)C(O)C2O)O[C@H]2C[C@H]3[C@@H]4CC=C5C[C@@H](OC6OC(CO)C(OC7OC(C)C(O)C(O)C7O)C(O)C6OC6OC(C)C(O)C(O)C6O)CC[C@]5(C)[C@H]4CC[C@]3(C)[C@H]2[C@@H]1C (some centres not stated)	> 200	2.57 µM	
CC1CN=C(Nc2cccc(F)c2)S1 (configuration not stated)	0.191	> 200 µM	
CC(=O)C(CN(C)Cc1ccccc1)C(c1ccccc1)c1c(O)c2ccccc2oc1=O (configuration not stated)	> 38.9	> 38.9 µM	
CC1=NS(=O)(=O)NC(C)(C)C1	> 200	> 200 µM	
O=C(O)/C(Cl)=C(\Cl)Nc1cccc(C(F)(F)F)c1			inactive
COc1ccc(CCN(C)C2CCC(C#N)(c3ccc(OC)c(OC)c3)CC2)cc1OC (configuration not stated)	> 145	74.1 µM	
CC(=O)N(c1ccccc1)[Si](C)(C)C			inactive
Cc1cc(=O)n(CC(=O)O)c2ccccc12	> 200	105 µM	

Structure (SMILES)	EC50 [µM]	IC50	outcome
CSc1ncnc2c1ncn2CCC(=O)OC(C)(C)C	> 200	> 200 µM	
O=C1CCC(N2C(=O)C3C4c5ccccc5C(c5ccccc54)C3C2=O)C(=O)N1 (configuration not stated)	> 200	> 200 µM	
COCS(=O)(=O)c1ccccc1	> 708	> 708 µM	
CNc1ccc(Cl)cc1S(=O)(=O)c1ccccc1[N+](=O)[O-]	0.562	741 µM	
Cc1nnc(N)nc1/C=C\c1cccs1	> 200	5.5 µM	
CN(C)/C=N/n1c2ccccc2c2ccccc21	> 200	110 µM	
Cc1cccc(O)c(=O)c1			inactive
CC(=O)OCC1OC(c2c(OC(C)=O)cc(C)c3c(=O)cc(/C(C(C)=O)=C(\C)O)oc23)C(OC(C)=O)C(OC(C)=O)C1OC(C)=O (configuration not stated)	> 200	> 200 µM	
COc1cc(/C=C/c2ccc(OC)c(OC)c2)cc(OC)c1			inactive
C[n+]1c(-c2ccc(/C=N\NC(=O)c3cncc(C(=O)N/N=C/c4ccc(-c5cn6ccccc6[n+]5C)cc4)c3)cc2)cn2ccccc21	> 7.41	> 7.41 µM	
Nc1ccccc1C(=O)NNC(=O)c1ccccc1N	> 200	> 200 µM	
CCOc1ccccc1NC(=O)CCc1nnc2s/c(=C\CCc3ccccc3)c(=O)n12	> 79.4	> 79.4 µM	
O=CCOCc1cc2c(cc1Br)OCO2	> 200	5.25 µM	
CCOC(=O)c1[nH]c2nc(SC)nc(NC)c2c1N	> 200	129 µM	
Clc1ccc(CSc2nnc3c(n2)[nH]c2ccccc23)cc1	> 200	42.7 µM	
Cc1ccc(S(=O)(=O)c2ccccn2)cc1	132	380 µM	
CC1C(n2[nH]c(=O)n(C)c2=O)c2ccccc2-n2c(=O)n(C)c(=O)n21 (configuration not stated)	> 64.6	> 64.6 µM	
COc1c2ccoc2cc2oc(=O)ccc12	> 58.9	> 58.9 µM	
NC(=O)c1ncn(CC2(CO)CCC2)c1N	> 200	> 200 µM	
CCC1=C(OC)c2nc(C)ccc2C(=O)C1=O			inactive
CCC/C(Cl)=N/OC(=O)Nc1cccc(F)c1	> 20	3.16 µM	
CC1(C)C(=O)N(O)C(C)(C)N1N=O	> 200	> 200 µM	
O=C(O)c1cc(Cc2cc(Cl)c(O)c(C(=O)O)c2)cc(Cl)c1O	> 501	347 µM and 204 µM	

Structure (SMILES)	EC50 [µM]	IC50	outcome
NC(=S)NNC(=O)CCC(=O)Nc1ccc(Cl)cc1Cl	> 107	> 107 µM	
c1cnc2nc3n(c2c1)CSC3	> 380	355 µM	
CC1(C)CC(C)(C)CC(O)(C2(O)CC(C)(C)CC(C)(C)C2)C1	> 8.71	> 8.71 µM	
Cc1ccc(S(=O)(=O)OC2C(O)C(O)OC2C(c2cc(O)c3c(c2O)C(=O)c2ccccc2C3=O)c2cc(O)c3c(c2O)C(=O)c2ccccc2C3=O)cc1 (configuration not stated)	> 200	14.5 µM	
OCC(O)C(O)c1nn(-c2ccccc2)c2nc3cc(Cl)c(Cl)cc3nc12 (configuration not stated)			inactive
NC(S(=O)(=O)O)S(=O)(=O)O	> 200	91.2 µM	
CCOC(=O)Nc1nn(C)c(=NCc2ccccc2)s1	> 200	> 200 µM	
COc1c2c(c3ccccc3c1O)C1C=CC2C1 (configuration not stated)	> 110	10 µM	
C/C(=N\N=C(\N)SB(F)F)c1ccc2ccccc2c1	> 200	29.5 µM	
N#C/C(=C\n1c(=S)[nH]c2ccc([N+](=O)[O-])cc21)C(=O)c1ccc2ccccc2c1	> 200	> 200 µM	
O=C(/C(C=NC(=S)c1ccncc1)=C(/O)C1=CC=CCC1)c1ccccc1			inactive
N#C/C(=C/N1C(=O)/C(=C/c2ccc([N+](=O)[O-])cc2)SC1=S)C(N)=O	> 200	16.2 µM	
N#C/C(=C\c1ccccc1)c1ccc(F)cc1F	> 200	37.2 µM	
CCOC(=O)CSc1nc(N)c2c(-c3ccc(OC)c(OC)c3)c3c(nc2n1)CCCC3	> 200	> 200 µM	
Cc1nc(N)nc(N)c1N1CCN(c2ccc(S(N)(=O)=O)cc2)CC1	> 200	0.398 µM	
Clc1ccc(C2NCCNCc3ccccc32)cc1 (configuration not stated)			inactive
N#Cc1c(N)nc(N)nc1Nc1ccc(I)cc1	> 200	23.4 µM	
COc1ccc2c3c1OC1C4(OC)C=CC5(c6c(OC)ccc(O)c64)C(C2)N(C)CCC315 (configuration not stated)	> 100	53.7 µM	
O=C(CN1CCOCC1)CC(O)(C(F)(F)F)C(F)(F)F	> 200	95.5 µM	
COc1nc(N)nc2c1n(C)c[n+]2C	> 200	141 µM	
CCOC(=O)Cc1c(C)c2ccc(OC(C)=O)c(OC(C)=O)c2oc1=O	> 200	36.3 µM	
O=C(O)CC[C@@]1(C(=O)O)NC(C(=O)O)Cc2[nH]cnc21 (some centres not stated)	> 437	> 437 µM	
CCCC1c2c(cc(=O)[nH]c2O)C(=O)N1Cc1ccccc1 (configuration not stated)	> 63.1	> 63.1 µM	
